Measurements: patent US6569839B1, “Fast-acting pharmaceutical compositions and methods of use” (priority 1998, dated 2003)

Tests used:
[1] = 0.5%, continuous perineural infusion around the major nerve; cited from earlier work
[2] = 1000 units of Heparin with 1 gm of Cefazolin; cited from earlier work
[3] = tested on: gram negative organisms and many gram positive organisms which include staphylococcus aureus and staphylococcus epidermidis; conditions: cited from earlier work
[4] = Absorption of antibiotic from the treated wound; type: in vivo; conditions: administered to the wound over 24 hour period
Procedure: In an embodiment of the present invention, a medicinal solution comprising Chloramphenicol can be prepared such that the patient receives only about 1-½ gm in a 24 hour period. Thus, if 100% was absorbed during the 24 hour period while treating a wound as, for example, following a total knee arthroplasty, the administered 1 ½ gm over a 24 hour is a safe dose, in fact, for three days. Since, however, only approximately 40% of the antibiotic is typically absorbed, the amount that is available to the bone marrow is, thus, very small. For patients with blood dyscrasias a dose of about 2 gm of Cephalosporin or a dose of about 1 gm Septaz can be used in place of a dose of about 1 g of Chloramphenicol for the 24 hour period.

[5] = tested on: common bone and joint infections; conditions: cited from earlier work
[6] = I.V. every 90 minutes; cited from earlier work
[7] = 50 to 100 mg I.V. over a 40 to 120 second period; cited from earlier work
[8] = in vivo
[9] = 1 gm interoperatively; total hip or knee joint replacements; 95% without steroid; cited from earlier work

SMILES: CCCCN1CCCCC1C(=O)Nc1c(C)cccc1C (centres unmarked) [Bupicocaine]
- relief of pain [1]: good relief of pain

SMILES: Cc1nnc(SCC2=C(C(=O)O)N3C(=O)[C@@H](NC(=O)Cn4cnnn4)[C@H]3SC2)s1 [Cefazolin]
- time compatible [2]: 24 h

SMILES: CC(C)(O/N=C(\C(=O)N[C@@H]1C(=O)N2C(C(=O)[O-])=C(C[n+]3ccccc3)CS[C@H]12)c1csc(N)n1)C(=O)O [Ceftazidime]
- Bacterial coverage [3]: very good

SMILES: O=C(N[C@H](CO)[C@H](O)c1ccc([N+](=O)[O-])cc1)C(Cl)Cl [Chloramphenicol]
- fraction of the antibiotic typically absorbed [4]: approximately 40%
- effectiveness as broad-spectrum antibiotic ([5]; against the common bone and joint infections): very effective
- reported blood toxicity ([5]; in vivo): aplastic anemia and other blood problems

SMILES: CCN(CC)CC(=O)Nc1c(C)cccc1C [Lidocaine]
- maximum suggested dose [6]: about 300 mg
- ill effects [7]: without ill effects

SMILES: CCCCN1CCCCC1C(=O)Nc1c(C)cccc1C (centres unmarked) [Marcaine]
- complications if dosage is not strictly monitored [8]: critical complications can occur

SMILES: C[C@]12CCC(=O)C=C1CC[C@@H]1[C@@H]2[C@@H](O)C[C@@]2(C)[C@H]1CC[C@]2(O)C(=O)COC(=O)CCC(=O)O [Solu-Cortef, Hydrocortisone sodium succinate]
- patients who experienced pain with interoperative steroid administration [9]: 33%

SMILES: C[C@H]1C[C@@H]2[C@H]([C@@H](O)C[C@@]3(C)[C@H]2CC[C@]3(O)C(=O)COC(=O)CCC(=O)O)[C@@]2(C)C=CC(=O)C=C12 [Solumedrol]
- patients who experienced pain with interoperative steroid administration [9]: 33%
